In ChEMBL document CHEMBL6120994, “Unravelling the potential of natural chelating agents in the control of Staphylococcus aureus and Pseudomonas aeruginosa biofilms” (Eur J Med Chem, 2025):
Active and inactive are the calls of the source. No cut-off for these calls is given here.

Legend:
Staphylococcus aureus [1] = experiment: Inhibition of virulence production in pre-established 24 hr-old Staphylococcus aureus CECT 976 biofilms assessed as diameter of siderophores halo at 10XMTC measured after 48 hrs in presence of 1/2XMIC tobramycin (reference value: 11.8 +/-0.5 mm); assay type: functional
Staphylococcus aureus [2] = experiment: Antibiofilm activity against preestablished 24 hr-old Staphylococcus aureus CECT 976 assessed as biomass removal at 1000 to 10000 ug/ml measured after 24 hrs by crystal violet staining method; assay type: functional; conditions: dose 1000-10000 µg/ml, at 1000 to 10000 µg/mL
Cell membrane [3] = experiment: Disruption of membrane integrity in pre-established 24 hr-old Staphylococcus aureus CECT 976 biofilm at 10XMTC measured after 24 hrs by PI staining based flow cytomtery; assay type: subcellular
Staphylococcus aureus [4] = experiment: Inhibition of virulence production in Staphylococcus aureus CECT 976 biofilms assessed as diameter of gelatinases halo at 1/2XMTC measured after 48 hrs in presence of 1/4XMIC tobramycin (reference value: 11.3 to 11.8 mm); assay type: functional
Staphylococcus aureus [5] = experiment: Inhibition of virulence production in Staphylococcus aureus CECT 976 biofilms assessed as diameter of protease halo at 1XMTC measured after 72 hrs (reference value: 12 to 13 mm); assay type: functional
Pseudomonas aeruginosa [6] = experiment: Bactericidal activity against Pseudomonas aeruginosa ATCC 10145 assessed as bacterial killing incubated in MHB for 24 hrs and measured following culturing on agar plate for 24 hrs; assay type: functional; conditions: time 48 hrs
Staphylococcus aureus [7] = experiment: Inhibition of virulence production in pre-established 24 hr-old Staphylococcus aureus CECT 976 biofilms assessed as diameter of lipases halo at 10XMTC measured after 48 hrs in presence of 1/2XMIC tobramycin (reference value: 11.5 to 12.3 mm); assay type: functional
Staphylococcus aureus [8] = experiment: Inhibition of virulence production in Staphylococcus aureus CECT 976 biofilms assessed as diameter of gelatinases halo at 1/2XMTC measured after 48 hrs (reference value: 10.8 to 11.5 mm); assay type: functional
Staphylococcus aureus [9] = experiment: Inhibition of virulence production in Staphylococcus aureus CECT 976 biofilms assessed as diameter of siderophores halo at 1XMTC measured after 48 hrs (reference value: 12 mm); assay type: functional
Cell membrane [10] = experiment: Disruption of membrane integrity in Staphylococcus aureus CECT 976 biofilm at 500 ug/ml measured after 24 hrs in presence of 1/2XMIC tobramycin by SYTO9/PI dye based epifluorescence microscopy; assay type: subcellular; conditions: dose 500.0 µg/ml
Pseudomonas aeruginosa [11] = experiment: Antibiofilm activity against preestablished 24 hr-old Pseudomonas aeruginosa ATCC 10145 assessed as reduction in metabolic activity of biofilm cells at MTC by resazurin staining based fluorescence analysis; assay type: functional, organism-based
Staphylococcus aureus [12] = experiment: Inhibition of virulence production in pre-established 24 hr-old Staphylococcus aureus CECT 976 biofilms assessed as diameter of lipases halo at 10XMTC measured after 48 hrs (reference value: 11.8 to 12 mm); assay type: functional
Staphylococcus aureus [13] = experiment: Antibiotic adjuvant activity against Staphylococcus aureus CECT 976 assessed as potentiation of tobramycin-induced antibiofilm activity by measuring reduction in biomass production at 500 ug/ml measured after 24 hrs in presence of tobramycin by crystal violet staining method; assay type: functional, organism-based; conditions: dose 500.0 µg/ml
Pseudomonas aeruginosa [14] = experiment: Antibiotic adjuvant activity against Pseudomonas aeruginosa ATCC 10145 assessed as potentiation of ciprofloxacin-induced antibiofilm activity by measuring reduction in metabolic activity of biofilm cells at 500 ug/ml in presence of ciprofloxacin by resazurin staining based fluorescence analysis; assay type: functional, organism-based; conditions: dose 500.0 µg/ml
Staphylococcus aureus [15] = experiment: Inhibition of virulence production in pre-established 24 hr-old Staphylococcus aureus CECT 976 biofilms assessed as diameter of gelatinases halo at 1XMTC measured after 48 hrs (reference value: 10 mm); assay type: functional
Staphylococcus aureus [16] = experiment: Antibiofilm activity against preestablished 24 hr-old Staphylococcus aureus CECT 976 assessed as reduction in metabolic activity of biofilm cells at MTC by resazurin staining based fluorescence analysis; assay type: functional, organism-based
Staphylococcus aureus [17] = experiment: Inhibition of virulence production in pre-established 24 hr-old Staphylococcus aureus CECT 976 biofilms assessed as diameter of protease halo at 10XMTC measured after 72 hrs in presence of 1/2XMIC tobramycin (reference value: 11.8 to 12.3 mm); assay type: functional
Staphylococcus aureus [18] = experiment: Inhibition of virulence production in pre-established 24 hr-old Staphylococcus aureus CECT 976 biofilms assessed as diameter of protease halo at 1XMTC measured after 72 hrs (reference value: 12.3 to 13.3 mm); assay type: functional
Staphylococcus aureus [19] = experiment: Antibiotic adjuvant activity against Staphylococcus aureus CECT 976 assessed as potentiation of tobramycin-induced antibiofilm activity by measuring reduction in metabolic activity of biofilm cells at 500 ug/ml in presence of tobramycin by resazurin staining based fluorescence analysis; assay type: functional, organism-based; conditions: dose 500.0 µg/ml
Staphylococcus aureus [20] = experiment: Antibacterial activity against Staphylococcus aureus CECT 976 assessed as inhibition of bacterial growth by measuring inhibition zone diameter at 1000 ug/ml incubated for 24 hrs in presence of fusidic acid by disc diffusion method (reference value: 27.75 +/- 0.5 mm); assay type: functional; conditions: read-out: DIZ
Staphylococcus aureus [21] = experiment: Inhibition of virulence production in pre-established 24 hr-old Staphylococcus aureus CECT 976 biofilms assessed as diameter of protease halo at 10XMTC measured after 72 hrs in presence of 1/4XMIC tobramycin (reference value: 12.5 to 12.8 mm); assay type: functional
[22] = Metal chelating activity at iron(III) in chrome azurol sulphonate solution incubated for 30 mins by spectrophotometric analysis; conditions: dose 6.25-1000 µg/ml
Staphylococcus aureus [23] = experiment: Inhibition of virulence production in pre-established 24 hr-old Staphylococcus aureus CECT 976 biofilms assessed as diameter of siderophores halo at 10XMTC measured after 48 hrs in presence of 1XMIC tobramycin (reference value: 11.3 +/-0.5 mm); assay type: functional
Pseudomonas aeruginosa [24] = experiment: Antibiofilm activity against preestablished 24 hr-old Pseudomonas aeruginosa ATCC 10145 assessed as reduction in metabolic activity of biofilm cells at 10XMTC by resazurin staining based fluorescence analysis; assay type: functional
Staphylococcus aureus [25] = experiment: Antibiofilm activity against preestablished 24 hr-old Staphylococcus aureus CECT 976 assessed as reduction in metabolic activity of biofilm cells at 10XMTC by resazurin staining based fluorescence analysis; assay type: functional
Staphylococcus aureus [26] = experiment: Inhibition of virulence production in Staphylococcus aureus CECT 976 biofilms assessed as diameter of lipases halo at 1/2XMTC measured after 48 hrs in presence of 1/8XMIC tobramycin (reference value: 12.5 to 12.8 mm); assay type: functional
Pseudomonas aeruginosa [27] = experiment: Antibiotic adjuvant activity against Pseudomonas aeruginosa ATCC 10145 assessed as potentiation of ciprofloxacin-induced antibiofilm activity by measuring reduction in biomass production at 500 ug/ml measured after 24 hrs in presence of 1/16XMIC ciprofloxacin by cystal violet staining method (reference value: 36%); assay type: functional
Staphylococcus aureus [28] = experiment: Inhibition of virulence production in Staphylococcus aureus CECT 976 biofilms assessed as diameter of siderophores halo at 1/2XMTC measured after 48 hrs in presence of 1/4XMIC tobramycin (reference value: 10.5 +/-0.6 mm); assay type: functional
Staphylococcus aureus [29] = experiment: Antibacterial activity against Staphylococcus aureus CECT 976 assessed as inhibition of bacterial growth by measuring inhibition zone diameter at 1000 ug/ml incubated for 24 hrs in presence of gentamicin by disc diffusion method (reference value: 12 +/- 1.63 mm); assay type: functional; conditions: read-out: DIZ

| Structure (SMILES) | Activity (Staphylococcus aureus [1]) [mm] | inhibition (INH) (Staphylococcus aureus [2]) [%] | Activity (Cell membrane [3]) [%] | Activity (Staphylococcus aureus [4]) [mm] | Activity (Staphylococcus aureus [5]) [mm] | MBC (Pseudomonas aeruginosa [6]) [µg/mL] | Activity (Staphylococcus aureus [7]) [mm] | Activity (Staphylococcus aureus [8]) [mm] | Activity (Staphylococcus aureus [9]) [mm] | Activity (Cell membrane [10]) | Activity (Pseudomonas aeruginosa [11]) | Activity (Staphylococcus aureus [12]) [mm] | Activity (Staphylococcus aureus [13]) | Activity (Pseudomonas aeruginosa [14]) | Activity (Staphylococcus aureus [15]) [mm] | Activity (Staphylococcus aureus [16]) | Activity (Staphylococcus aureus [17]) [mm] | Activity (Staphylococcus aureus [18]) [mm] | Activity (Staphylococcus aureus [19]) | zone of inhibition at 1000 µg/mL (Staphylococcus aureus [20]) [mm] | also measured |
| --- | --- | --- | --- | --- | --- | --- | --- | --- | --- | --- | --- | --- | --- | --- | --- | --- | --- | --- | --- | --- | --- |
| Cc1occc(=O)c1O [MALTOL] | 10 | 15 | 90 | 0 | 0 | > 1000 | 2.3 | 0 | 10 | inactive | inactive | 2.5 | Active; Slight Increase Noted | inactive | 0 | inactive | 0 | 3.5 | inactive | 28.2 | Activity (Staphylococcus aureus [21]): 0 mm; Activity [22]: Dose-dependent-effect; Activity (Staphylococcus aureus [23]): 10.3 mm; inhibition (INH) (Pseudomonas aeruginosa [24]): 70%; inhibition (INH) (Staphylococcus aureus [25]): 80%; Activity (Staphylococcus aureus [26]): 2 mm; inhibition at 500 µg/mL (Pseudomonas aeruginosa [27]): 60%; Activity (Staphylococcus aureus [28]): 9.5 mm; zone of inhibition at 1000 µg/mL (Staphylococcus aureus [29]): 17.5 mm |
| O=c1cc(CO)occ1O [KOJIC ACID] | 10 | 15 | 90 | 0 | 0 | > 1000 | 2 | 0 | 10 | inactive | inactive | 2.5 | Active; Slight Increase Noted | inactive | 0 | inactive | 0 | 3.5 | inactive | 26.8 | Activity (Staphylococcus aureus [21]): 0 mm; Activity [22]: Dose-dependent-effect; Activity (Staphylococcus aureus [23]): 10 mm; inhibition (INH) (Pseudomonas aeruginosa [24]): 70%; inhibition (INH) (Staphylococcus aureus [25]): 80%; Activity (Staphylococcus aureus [26]): 2.5 mm; inhibition at 500 µg/mL (Pseudomonas aeruginosa [27]): 60%; Activity (Staphylococcus aureus [28]): 9.5 mm; zone of inhibition at 1000 µg/mL (Staphylococcus aureus [29]): 9.5 mm |
